Each structure is given as a SMILES string. pEC50: −log10 of the molar value. Read-outs that look alike come from different tables or passages of the source.

Series [1] relates to C. parvum. As to conditions: read-out: reported EC50 C. parvum growth (previous studies); cited from earlier work.
For series [2], the system named is HCT-8 cells. Kind of series: fluorescent HCT-8 host cell growth assay. The class given is cell-based, human. The source says:
The differentiation of selective antiparasitic effects from those that are a secondary consequence of a host cell effect is a critical issue in drug discovery for intracellular parasites. Cytotoxicity assays commonly reflect plasma membrane integrity, and are a crude measure of host cell effects—it is conceivable that more subtle perturbations of host cell metabolism can have an adverse effect on parasite proliferation. Therefore we sought to develop a simple and inexpensive assay of host cell growth. The human ileocecal adenocarcinoma epithelial cell line, HCT-8, which is commonly used to maintain C. parvum infection in tissue culture, was engineered to constitutively express a green fluorescent protein (GFP). Growth of this cell line was monitored daily using a fluorescent plate reader. […] These experiments validate the use of the fluorescent HCT-8 cell growth assay.
HCT-8 cells were transfected with the pmaxGFP plasmid (Amaxa) using Lipofectamine (Invitrogen) following the manufactures instruction. Fluorescent lines were then selected and cloned using FACS. Confluent monolayers of pmaxGFP expressing cells were harvested from T75 flasks and passed through a 40 μm cell strainer. Cells were then seeded at 4000 cells per well in a volume of 200 μL into black, optical quality, thin bottom, 96-well plates (DB Falcon). All test compounds were diluted in DMSO to prepare a 200× working stock for each dilution. Appropriate wells were spiked with 1 μl such that the final concentration of DMSO was 0.5%. The fluorescence was read daily with a SpectraMax M22/M2e (Molecular Devices) plate reader (Ex 485, Em 530) for 6-7 days. The percent inhibition was calculated on a day within the exponential phase of growth.

The test system of series [3] is C. parvum. Kind of series: high content imaging C. parvum growth assay. The format is cell-based, Cryptosporidium parvum. From the text: FIG. 58 depicts an overview and validation of the high content imaging C. parvum growth assay. A, schematic representation of differential labelling of parasite and host. B, detail of an exemplary micrograph obtained through the screening routine. Numbers indicate object identifies after segmentation analysis. […] For panel D, the ratio of the number of FITC-VVL labelled C. parvum parasites to DAPI labelled HCT-8 host cell nuclei was used to standardize each well and percent C. parvum growth (solid line) was normalized to parasites receiving DMSO alone. […] Paromomycin in addition to reducing parasite number also reduces the average size of the parasite (dashed line). The mean parasite area was measured per well for each treatment in triplicate. The percent area was then calculated by normalizing to the mean area of parasites receiving DMSO alone.
A direct and efficient assay of Cryptosporidium proliferation was also needed. Fluorescent Vicia villosa lectin (VVL) has been used previously to score C. parvum growth by fluorescence microscopy. VVL binds with high specificity to the C. parvum parasite, labelling sporozoites, intracellular stages, the inner oocyst wall, but not the outer oocyst wall. To accommodate the increasing number of compounds entering the SAR pipeline, we adapted the FITC-VVL immunofluorescence assay to a 96-well plate format and developed an automated imaging and analysis pipeline. […] Plates are fixed, permeabilized and stained with FITC-VVL and DAPI to numerate parasites and host cells, respectively. Using a spinning disc microscope, we imaged a […] of each well, providing a robust sample typically consisting of ˜6000 host cells and ˜2000 parasite stages. The instrument is programmed to automatically move from well to well, focus and acquire […] deep image stacks for the entire plate. A series of automated image compression, manipulation, and object-finding algorithms was optimized for the recognition of host cells and parasites using the DAPI and FITC channels. […]

Series [4] deals with T1, recombinant C. parvum IMPDH (Cryptosporidium parvum, UniProt Q8T6T2).
T1 construct: made in house; host or cells: bacteria (guaB strains of E. coli)
T1 sequence (Q8T6T2 1-400): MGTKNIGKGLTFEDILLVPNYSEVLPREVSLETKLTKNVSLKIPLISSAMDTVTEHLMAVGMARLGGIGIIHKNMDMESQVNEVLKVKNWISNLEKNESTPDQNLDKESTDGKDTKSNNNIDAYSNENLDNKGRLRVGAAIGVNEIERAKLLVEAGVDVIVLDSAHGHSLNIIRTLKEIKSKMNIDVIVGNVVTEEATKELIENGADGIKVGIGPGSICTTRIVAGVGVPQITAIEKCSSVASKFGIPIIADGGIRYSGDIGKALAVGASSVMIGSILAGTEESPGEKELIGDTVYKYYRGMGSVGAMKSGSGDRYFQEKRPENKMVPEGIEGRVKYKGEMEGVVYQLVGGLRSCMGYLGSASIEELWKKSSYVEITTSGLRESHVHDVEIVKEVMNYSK
Put plainly: C. parvum IMPDH inhibition (NADH production). The format is biochemical. Here is the method: Recombinant C. parvum IMPDH was expressed in bacteria and purified as described previously [N. N. Umejiego et al., J Biol Chem 279, 40320-40327 (2004)].
Inhibitors at varying concentrations (25 pM-5 μM) were incubated with 10 nM C. parvum in assay buffer for 10 min at room temperature. The reaction was initiated by the addition of NAD and IMP for final concentrations of 300 μM and 150 μM, respectively. Selectivity was measured against human type II and T. foetus IMPDH at 25° C. in assay buffer. The former was assayed in the presence of 300 μM NAD 40 μM IMP and 160 nM human type II IMPDH, and the latter in the presence of 300 μM NAD 20 μM IMP and 28 nM T. foetus IMPDH. The production of NADH was monitored spectrophotometrically at 340 nm (=6.22 mM^−1 cm^−1) using a Hitachi U-2000 spectrophotometer.
IC50 values were calculated for each inhibitor according to the following equation: υi=υo/(1+[I]/IC50), using the SigmaPlot program (SPSS, Inc.).
The CpIMPDH inhibitory activity of the compounds was assessed by monitoring the production of NADH by fluorescence (FIG. 55). […]
Evaluation of Cp-IMPDH inhibitory activity for the various prepared compounds was conducted utilizing an assay measuring the conversion of IMP to XMP by monitoring the production of NADH by fluorescence emission in the presence of varying inhibitor concentrations. […]

The subject of series [5] is T. gondii-CpIMPDH. Put plainly: T. gondii-CpIMPDH fluorescence growth assay. The format is cell-based, Toxoplasma gondii.

With `NC[C@@H]1O[C@H](O[C@H]2[C@@H](O)[C@H](O[C@@H]3[C@@H](O)[C@H](N)C[C@H](N)[C@H]3O[C@H]3O[C@H](CO)[C@@H](O)[C@H](O)[C@H]3N)O[C@@H]2CO)[C@H](N)[C@@H](O)[C@@H]1O` [paromomycin], the pEC50 in series [1] is 3.89 to 4.19; in series [3] (Cryptosporidium parvum, in HCT-8 host cells) it was 4.01. The “host cell (HCT-8) growth effect, in words” value in series [2] is recorded as “negligible effects on the growth of these cells”. Also, the “mean parasite area, in words” value in series [3] is given as “significantly reduce the mean parasite area in a dose responsive manner”. Further, the “reduction in parasite number” value in series [3] (very high concentrations) was approximately 70%.
`O=C(Nc1ccc(Cl)cc1)C(Oc1cccc2ccccc12)c1ccccc1` (stereo not shown) [A66]: the “CpIMPDH inhibition, result in words” value in series [4] is given as “do not inhibit CpIMPDH in vitro”. For the same molecule, the “selective block of T. gondii-CpIMPDH growth, in words” value in series [5] is given as “none of these compounds selectively blocked the growth”.

Broadly, the pEC50 is −log10 of the EC50, conventionally taken in molar units.

The values above are taken from patent US10125116B2, “Compounds and methods for treating mammalian gastrointestinal microbial infections” (Brandeis University, priority 2009, dated 2018).
